Measured values published in PMC11979881, “Engineering Multifunctional Peptide-Decorated Nanofibers for Targeted Delivery of Temozolomide across the Blood–Brain Barrier” (Molecular Pharmaceutics, 2025).

Key:
[1] = tested on: human brain microvascular endothelial cells (HBMEC); test: PrestoBlue cell viability, HBMEC; format: cell-based; details: treated every 24 h for 3 days, TMZ 10 μM
Experimental: To verify whether NF-t or NF-TMZ influenced healthy brain endothelial cells constitutively expressing EGFRs, the experiment described above was conducted on human brain microvascular endothelial cells (HBMEC) and brain endothelial cells (bEnd.3) to assess their effects . Cells were seeded in a 96-well plate (15,000 cells per well) in their appropriate culture medium. After 24 h, cells were treated likewise with U-118 and U-87 cells with 10 μM TMZ, both conjugated and unconjugated with NF-t. The control was performed on cells cultured only in the medium. Under the same conditions as for 2D cells, the PrestoBlue assay was performed. […] TMZ release from NF-TMZ was evaluated using matrix metalloproteinase-9 (MMP-9). In particular, NF-TMZ was prepared as reported before and hydrated in the following buffer solution: 50 mM HEPES, 200 mM NaCl, 10 mM CaCl2, and 1 mM ZnCl2, at pH 7. The MMP-9 was preactivated with APMA 100 μM and Tris-HCl 50 mM (pH 7.2) and was left at 37 °C for 3 h.[33],[35] Once activated, MMP-9 was added to NF-TMZ and the culture medium at a final concentration of 40 nM; and cells were incubated for 72 h.

U-118 MG [2] = details: U-118, 72 h, same experimental conditions; cited from earlier work
Experimental: In 2D experiments, we observed a remarkable effect on U-118 cells with all nanofibers carrying TMZ at different concentrations, which increased proportionally with the concentration. In particular, treatment with NF-TMZ (carrying TMZ at a concentration of 10 μM) caused a decrease in cell viability at 72 h by more than 40%, whereas a similar decrease (under the same experimental conditions) is reported in the literature with a TMZ concentration of 100 μM.[41] U-87 cells responded less to the treatment, but we still observed a reduction in cell viability of 30%. Indeed, the experiments performed ...

3D U-87 [3] = test: PrestoBlue viability on 3D dynamic in vitro BBB model, 3D U-87; format: cell-based, human; details: 3D U-87 in lower chamber, injection into upper chamber, TMZ 10 μM, 72 h
Experimental: (§1) To evaluate the effects of NF-TMZ on fluid-dynamically cultured 3D GBM cells, we set up different bioreactors containing HBMEC and hPC-PL cells in the upper chamber and 3D U-118 cells or 3D U-87 cells in the lower chamber. NF-TMZ (10 μM), NF-t, and free TMZ (10 μM) were injected into the upper chamber, and their effects were evaluated after 72 h using the PrestoBlue viability assay. Briefly, 72 h after treatment, spheroids in the lower chamber were taken out and placed inside 48-well plates, and the PrestoBlue viability reagent (1:10) was added for 1.5 h. The absorbance was quantified using a Bio-Tek Synergy HT Microplate Reader. The control bioreactor was performed with HBMEC and hPC–PL cells in the upper chamber; and 3D U-118 MG cells and 3D U-87 MG cells in the lower chamber without treatment.

3D U-87 [4] = test: PrestoBlue cell viability, 3D U-87 spheroids; format: cell-based, human; details: 3D U-87, 10 μM TMZ, 72 h, treated every 24 h
Experimental: Once the appropriate concentration corresponding to the greatest lowering of cell viability was established, we proceeded with the 3D U-118 and 3D U-87 cell assays. To produce 3D U-118 and 3D U-87 cells, we used the hanging drop method. Briefly, 10,000 cells per drop were placed in the lid of a 100 mm dish, creating a hydration chamber by placing PBS in the dish bottom. After incubating for 48 h at 37 °C/5% CO2, the aggregates were transferred to a 48-well plate (5 spheroids per well: approximately 50,000 cells/well). The 3D cells were treated every 24 h for 3 days. Each treatment was conducted on 10 spheroids: approximately 100,000 cells for each experimental class: 1) control; 2) NF-t; 3) NF-TMZ (10 μM); 4) free TMZ (10 μM). At the end of the incubation time, a cell viability assay was performed with using the PrestoBlue assay: the cells were incubated for 90 min, according to the manufacturer’s protocol. At the end of the incubation time, we measured the absorbance at 570 nm (with 600 nm as the reference wavelength) using a Bio-Tek Synergy HT Microplate reader.

U118 MG spheroids = test: Spheroid shape descriptors (Fiji), U118 MG; format: cell-based, human
Experimental: (§2) To identify apoptotic and necrotic cells, Annexin V-FITC/Propidium Iodide (PI) assay was performed according to the manufacturer’s protocol. Annexin V highlights apoptotic cells by binding to phosphatidylserine (PS) on their membranes . Propidium Iodide (PI) binds to the DNA of necrotic cells, as it is not permeable to the cell membrane. Cells lose the membrane integrity, Annexin V-FITC/PI can enter the cells. After the 3D cell treatment, cells were stained with Annexin V-FITC/PI for 20 min in the dark. After washing with PBS, nuclei were labeled with 4′,6-diamidino-2-phenylindole (DAPI) for 5 min. Images of the 3D cells were acquired using the JuLi Stage_RealTime Cell History Recorder microscope with a 10x objective, using different channels: RFP, GFP, and DAPI. The images were corrected for brightness and contrast using Fiji software and analyzed to evaluate morphological parameters after treatments. For each experimental condition, three different assays were repeated.
(§3) To evaluate shape descriptors, 10 spheroids for each formulation were imaged and analyzed by Fiji software (Table 4).
(§4) Table 4 was obtained using Fiji software, for U-118 and U-87 spheroids treated with NF-TMZ, free TMZ, and NF-t, compared with controls (no treatment), ***p < 0.001. Circularity was calculated as [drawing 3] . Values of 1.0 indicate a perfect circle; while as the value approaches 0.0, it indicates an increasingly elongated shape. Feret’s diameter was the maximum caliper of the object, also known as the longest distance between any two points along the selection boundary. The minimum caliper diameter is indicated as Min Feret. The aspect ratio of the particle’s fitted ellipse was calculated as [drawing 4] and is indicated as AR. Roundness was calculated as 4 [drawing 5] and is the inverse of AR. Shape descriptors describe the eventual changes in spheroid morphology following treatment.

3D U-118 [5] = test: PrestoBlue viability on 3D dynamic in vitro BBB model, 3D U-118; format: cell-based, human; details: 3D U-118 in lower chamber, injection into upper chamber, TMZ 10 μM, 72 h
Experimental: as §1

U87 MG spheroids = test: Spheroid shape descriptors (Fiji), U87 MG; format: cell-based, human
Experimental: as §2, §3, §4

U-118 MG [6] = test: PrestoBlue cell viability, 2D U-118; format: cell-based, human
Experimental: (§5) Glioblastoma/astrocytoma U-87 MG (U-87) and glioma U-118 MG (U-118) cell lines derived from the human brain were plated in 25 cm^2 flasks. They were grown individually in Dulbecco’s modified eagle’s medium high glucose (DMEM), supplemented with fetal bovine serum (FBS, 10%), penicillin/streptomycin (P/S, 100 U/mL), and L-glutamine (L/GLUT, 2 mM, Sigma-Aldrich), in a humidified incubator (37 °C, 5% CO2). At 70% confluence, cells were individually detached with a 0.25% solution of trypsin-EDTA.
(§6) For 2D experiments, U-118 and U-87 cells were seeded in 48-well plates, at approximately 20,000 cells per well in DMEM culture medium with 10% FBS, under standard cell culture conditions (5% CO2, 37 °C). Once the cells were attached, they were treated for 24, 48, and 72 h with 1) NF-TMZ carrying TMZ at different concentrations: 2.5, 5, 7.5, and 10 μM; 2) NF-t; 3) free TMZ at different concentrations (0, 10, 100, and 250 μM). […] At the end of the incubation time, a cell viability assay was performed using the PrestoBlue assay: the cells were incubated for 1 h according to the manufacturer’s protocol, and then absorbance was measured at 570 nm (with 600 nm as the reference wavelength) using a Bio-Tek Synergy HT Microplate reader.

U-87 MG = test: PrestoBlue cell viability, 2D U-87; format: cell-based, human
Experimental: as §5, §6

3D U-87 [7] = test: Annexin V-FITC/Propidium Iodide assay, 3D U-87; format: cell-based, human; details: TMZ 10 μM
Experimental: as §2

[8] = cited from earlier work
Excerpt: GBM is the most aggressive type of brain cancer, with a 5-year survival rate of less than 5% and a median survival period of 12–15 months.[9],[10] The standard treatment, consisting of surgery followed by chemotherapy with temozolomide (TMZ) and radiation therapy, marginally improves survival.

3D U-118 [9] = test: Annexin V-FITC/Propidium Iodide assay, 3D U-118; format: cell-based, human; details: 3D U-118, 24 h, TMZ 10 μM
Experimental: as §2

[10] = U118 MG spheroids, 10 spheroids per formulation, Fiji, ***p < 0.001 vs controls
[11] = U87 MG spheroids, 10 spheroids per formulation, Fiji

## Cn1nnc2c(C(N)=O)ncn2c1=O [TMZ, temozolomide]
[1]
  cell viability versus control: no significant difference
U-118 MG [2]
  TMZ concentration reported for a similar decrease in cell viability: 100 µM
3D U-87 [3]
  lower viability compared with the control: 13%
3D U-87 [4]
  decrease in viability compared to the control: 55%
U118 MG spheroids; 3D U-118
  spheroid surface area compared to control and NF-t: significantly lower
U118 MG spheroids; U118 MG spheroids, 10 spheroids per formulation, Fiji
  Circularity: 0.425
U118 MG spheroids; [10]
  Feret’s diameter: 512.096
  Min Feret: 397.785
U118 MG spheroids; U118 MG spheroids, aspect ratio of fitted ellipse, Fiji
  AR: 1.298
U118 MG spheroids; U118 MG spheroids, roundness, Fiji
  Round: 0.802
3D U-118 [5]
  lower viability compared with the control: < 20%
U87 MG spheroids; 3D U-87
  spheroid surface area compared to control and NF-t: significantly lower
U87 MG spheroids; [11]
  Circularity: 0.280
  Feret’s diameter: 841.910
  Min Feret: 612.895
U87 MG spheroids; U87 MG spheroids, aspect ratio of fitted ellipse, Fiji
  AR: 1.404
U87 MG spheroids; U87 MG spheroids, roundness, Fiji
  Round: 0.732
U-118 MG [6]
  free TMZ concentration giving a similar effect as NF-TMZ (TMZ 10 μM): 100 to 250 µM
U-87 MG; 2D U-87
  free TMZ concentration giving a similar effect as NF-TMZ (TMZ 10 μM): 100 to 250 µM
U-87 MG; 2D U-87, 24- and 48-h treatments
  concentrations at which TMZ acted on cell survival: ≥ 100 µM
3D U-87 [7]; 3D U-87, 24 h
  apoptotic cells (Annexin V) compared to the control: four-time increasing level
3D U-87 [7]; 3D U-87, 48 h
  necrotic cells (PI): increase in necrotic cells
[8]
  extravasation from blood to brain: ~20%
  plasma half-life: 2 h
  water solubility: poor water solubility
3D U-118 [9]
  apoptotic cells (Annexin V): initial burst of apoptosis
